Experimental data reported in US6310093A (priority 1998, dated 2001).
Where “and” joins values, the source holds several entries; their conditions need not be identical. Equal entries are not always repeated. Entries after “also recorded” stand apart in the source; their conditions may differ. Where two headings read alike, the source gives them in different places. Non-standard residues stand in square brackets, D forms with d. Residues, ends and D or L forms follow the SMILES beside them. pGlu = O=C1CC[C@@H](C(=O)O)N1

How the values were obtained:
[1] = target: T1, glutaminase (brain membranes) (Rattus norvegicus, UniProt P13264); assay: biochemical; set-up: Glutaminase Activity: unit not given here; conditions: for Glutaminase Activity: brain membranes
T1 construct: Membranes are prepared by homogenization of brain tissue in 330 mM sucrose; from tissue; host or cells: rat brain, crude membranes (17000 G pellet)
T1 sequence (P13264 73-674 limits assumed): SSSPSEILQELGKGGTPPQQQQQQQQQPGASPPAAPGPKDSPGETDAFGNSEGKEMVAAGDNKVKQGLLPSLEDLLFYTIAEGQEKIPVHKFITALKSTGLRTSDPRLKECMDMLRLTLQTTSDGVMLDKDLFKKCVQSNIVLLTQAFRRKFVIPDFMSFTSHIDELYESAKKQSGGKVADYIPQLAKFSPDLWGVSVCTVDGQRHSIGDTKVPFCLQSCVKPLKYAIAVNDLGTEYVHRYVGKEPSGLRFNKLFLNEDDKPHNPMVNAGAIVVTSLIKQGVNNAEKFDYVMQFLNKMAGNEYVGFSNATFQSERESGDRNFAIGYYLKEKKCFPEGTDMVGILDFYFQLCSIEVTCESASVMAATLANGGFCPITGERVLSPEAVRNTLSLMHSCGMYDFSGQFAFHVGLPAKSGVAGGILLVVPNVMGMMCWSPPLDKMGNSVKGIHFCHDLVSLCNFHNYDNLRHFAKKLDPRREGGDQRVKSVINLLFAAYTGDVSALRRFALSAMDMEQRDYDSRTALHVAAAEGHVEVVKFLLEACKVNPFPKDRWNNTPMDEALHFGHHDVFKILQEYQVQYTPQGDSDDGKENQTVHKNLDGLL

[2] = tested on: pure neuronal cultures (cortical neurons) exposed to glutamine
[3] = read-out: glutaminase activity, phosphate-containing compounds

Row | Compound | activity at 3300 µM ([1]; read-out: Glutaminase Activity) | activity at 9000 µM ([1]; read-out: Glutaminase Activity) | further results
1 | CC(CC(N)C(=O)O)C(=O)O (racemic) [(±)-threo-4-methylglutamate] | 170% | 100% | 
2 | CC(=O)NC(CCC(=O)O)C(=O)O (racemic) [N-acetyl-DL-glutamate] | 92 ± 10% | 75 ± 10% | 
3 | CNC(CCC(=O)O)C(=O)O (racemic) [N-methyl-DL-glutamate] | 102% | 124% | 
4 | CC(N)(CCC(=O)O)C(=O)O (racemic) [α-methyl-DL-glutamate] | 76% |  | 
5 | C=C(CC(N)C(=O)O)C(=O)O (racemic) [γ-methylene-DL-glutamate] | 105 ± 10% |  | 
6 | C[C@@H](CC(=O)O)[C@H](N)C(=O)O (relative stereo) [(±)-erythro-3-methylglutamate] | 34% | 18% | glutaminase inhibition (in words) [1]: moderate inhibition
7 | C[C@H](CC(=O)O)[C@H](N)C(=O)O (relative stereo) [(±)-threo-3-methylglutamate] | 91% | 7% | 
8 | CCCCCCCC([N+](=O)[O-])[N+](=O)[O-] [1,1-dinitrooctane] |  |  | dependence of glutaminase inhibition on phosphate level and concentration (in words) [1]: inhibition was reduced in the presence of high phosphate levels; the effect was particularly evident; also recorded: A biphasic effect; Glutaminase Activity ([1]; 30 µM): 96 ± 3; Glutaminase Activity ([1]; 100 µM): 96 ± 4; Glutaminase Activity ([1]; 300 µM): 51 ± 4 and 88 ± 17; Glutaminase Activity ([1]; 3000 µM): 64 ± 43; activity at 30 µM ([1]; read-out: Glutaminase Activity): 89 ± 6%; activity at 100 µM ([1]; read-out: Glutaminase Activity): 77 ± 11%; activity at 3000 µM ([1]; read-out: Glutaminase Activity): 79 ± 27%; neuroprotection (in words) [2]: neuroprotective in cultures of pure (intact) neurons; lowering of LDH level ([2]; pure neuronal cultures): 30-40%; lowering of glutamate level ([2]; pure neuronal cultures): 30-40%
9 | NC(CC(N)C(=O)O)C(=O)O (centres unmarked) [2,4-diaminopentanedioic acid] | 82 ± 7% | 103 ± 25% | 
10 | CCOP(=O)(OCC)c1ccc(P(=O)(OCC)OCC)s1 [2,5-bis(diethoxyphosphoryl) thiophene] |  |  | activity at 3000 µM [1, 3]: 75 to 90%; activity at 9000 µM [1, 3]: 70 to 85%
11 | O=C(O)C(CC=C1c2ccccc2C=Cc2ccccc21)C(=O)O [2-(2-dibenzo(a,d)cyclohepten-5-ylidene)-ethyl malonic acid] |  |  | dependence of glutaminase inhibition on phosphate level and concentration (in words) [1]: inhibition was reduced in the presence of high phosphate levels; the effect was particularly evident; Glutaminase Activity ([1]; 300 µM): 83 ± 7; Glutaminase Activity ([1]; 1000 µM): 61 ± 4; activity at 100 µM ([1]; read-out: Glutaminase Activity): 86 ± 10%; activity at 300 µM ([1]; read-out: Glutaminase Activity): 75 ± 5%; activity at 1000 µM ([1]; read-out: Glutaminase Activity): 44 ± 2%
12 | C=CCCCCCCCCCC(C(=O)O)C(=O)O [2-undec-10-enyl malonate] |  |  | Glutaminase Activity ([1]; 100 µM): 89 ± 6; Glutaminase Activity ([1]; 300 µM): 87 ± 2; activity at 100 µM ([1]; read-out: Glutaminase Activity): 96 ± 7%; activity at 300 µM ([1]; read-out: Glutaminase Activity): 67 ± 2%
13 | N[C@@H](CC(F)C(=O)O)C(=O)O (some centres unmarked) [4-fluoroglutamic acid] | 4.2 ± 1.3% |  | IC50 [1]: 500 µM; activity at 330 µM ([1]; read-out: Glutaminase Activity): 67 ± 7%; activity at 1000 µM ([1]; read-out: Glutaminase Activity): 30 ± 9%
14 | CC[C@](N)(CCC(=O)O)C(=O)O [(2S)-α-ethyl glutamic acid] | 95% |  | 
15 | C[C@H](N)C(=O)N[C@@H](CCC(=O)O)C(=O)O [Ala--Glu] (H-Ala-Glu-OH) | 117% | 115% | 
16 | N=C(N)NCCC[C@H](N)C(=O)N[C@@H](CCC(=O)O)C(=O)O [Arg--Glu] (H-Arg-Glu-OH) | 123% | 118% | 
17 | N[C@@H](CC(=O)O)C(=O)N[C@@H](CCC(=O)O)C(=O)O [Asp--Glu] (H-Asp-Glu-OH) | 77% | 32% | glutaminase inhibition (in words) [1]: moderate inhibition
18 | CC(C)(C)OC(=O)N[C@@H](CCC(=O)O)C(=O)O [BOC--Glu--OH] | 101% | 100% | 
19 | CC(C)(C)OC(=O)NCC(=O)NC(CC(F)C(=O)O)C(=O)O (centres unmarked) [BOC-glycyl-4-fluoroglutamate] | 52% | 15% | 
20 | N[C@@H](CCC(=O)O)C(=O)N[C@@H](CCC(=O)O)C(=O)O [Glu--Glu] (H-Glu-Glu-OH) | 130% | 141% | 
21 | N[C@@H](CCC(=O)O)C(=O)NCC(=O)O [Glu--Gly] (H-Glu-Gly-OH) | 94% | 95% | 
22 | NCCCC[C@H](NC(=O)[C@@H](N)CCC(=O)O)C(=O)O [Glu--Lys] (H-Glu-Lys-OH) | 96% | 93% | 
23 | C[C@@H](O)[C@H](NC(=O)[C@@H](N)CCC(=O)O)C(=O)O [Glu--Thr] (H-Glu-Thr-OH) | 124% | 123% | 

Row | Compound | activity at 3300 µM ([1]; read-out: Glutaminase Activity) | activity at 9000 µM ([1]; read-out: Glutaminase Activity) | further results
24 | CC(C)[C@H](NC(=O)[C@@H](N)CCC(=O)O)C(=O)O [Glu--Val] (H-Glu-Val-OH) | 122% | 116% | 
25 | NCC(=O)N[C@@H](CCC(=O)O)C(=O)O [Gly--Glu] (H-Gly-Glu-OH) | 94% | 102% | 
26 | NCC(=O)NCC(=O)N[C@@H](CCC(=O)O)C(=O)O [Gly--Gly--Glu] (H-Gly-Gly-Glu-OH) | 101% | 87% | 
27 | NCC(=O)N[C@H](CCC(=O)O)C(=O)O [Gly-D-Glu] (H-Gly-[dE]-OH) | 109% | 90% | 
28 | CCOC(=O)CC[C@H](N)C(=O)O [L-glutamate-5-ethyl ester] | 98% | 92% | 
29 | COC(=O)CC[C@H](N)C(=O)O [L-glutamate-5-methyl ester] | 105 ± 7% | 113% | 
30 | NC(=O)[C@@H](N)CCC(=O)O [L-glutamide] | 99% | 96% | 
31 | CSCC[C@H](N)C(=O)N[C@@H](CCC(=O)O)C(=O)O [Met--Glu] (H-Met-Glu-OH) | 111% | 98% | 
32 | CC(=O)N[C@@H](CC(=O)O)C(=O)N[C@@H](CCC(=O)O)C(=O)O [N-acetyl Asp--Glu] (Ac-Asp-Glu-OH) | 83% |  | glutaminase inhibition (in words) [1]: moderate inhibition
33 | N=CN[C@@H](CCC(=O)O)C(=O)O [N-formamino-Glu] | 89% | 127% | 
34 | N[C@@H](CO)C(=O)N[C@@H](CCC(=O)O)C(=O)O [Ser--Glu] (H-Ser-Glu-OH) | 104% | 88% | 
35 | N[C@@H](Cc1c[nH]c2ccccc12)C(=O)N[C@@H](CCC(=O)O)C(=O)O [Trp--Glu] (H-Trp-Glu-OH) | 99% | 86% | 
36 | N[C@@H](Cc1ccc(O)cc1)C(=O)N[C@@H](CCC(=O)O)C(=O)O [Tyr--Glu] (H-Tyr-Glu-OH) | 110% | 118% | 
37 | CC(C)[C@H](N)C(=O)N[C@@H](CCC(=O)O)C(=O)O [Val--Glu] (H-Val-Glu-OH) | 114% | 99% | 
38 | O=C(O)CC[C@H](NC(=O)OCc1ccccc1)C(=O)O [carbobenzoxy-Glu--OH] | 65% | 56% | glutaminase inhibition (in words) [1]: moderate inhibition
39 | O=C(O)CCCC(=O)O [glutaric acid] | 89% | 75% | 
40 | NCC(=O)NC(CC(F)C(=O)O)C(=O)O (centres unmarked) [glycyl-4-fluoroglutamate, Glycyl-4-fluoroglutamate] | 55% | 30% | activity at 330 µM ([1]; read-out: Glutaminase Activity): 94%; activity at 900 µM ([1]; read-out: Glutaminase Activity): 80%
41 | Cc1ncc(COP(=O)(O)O)c(C=O)c1O [pyridoxal 5-phosphate] |  |  | activity at 3000 µM [1, 3]: 75 to 90%; activity at 9000 µM [1, 3]: 70 to 85%
42 | C[C@H](NC(=O)[C@@H]1CCC(=O)N1)C(=O)N[C@@H](CCC(=O)O)C(=O)O [pyro-Glu--Ala--Glu] ([pGlu]-Ala-Glu-OH) | 95% | 76% | 
43 | CC(C)OP(=O)(CCP(=O)(OC(C)C)OC(C)C)OC(C)C [tetraisopropyl ethylene diphosphonate] |  |  | activity at 3000 µM [1, 3]: 75 to 90%; activity at 9000 µM [1, 3]: 70 to 85%
44 | NC(CC(=O)O)CC(=O)O [β-glutamic acid] | 84% |  | Glutaminase Activity ([1]; 9000 µM): 73 and 83 and 94
45 | N[C@@H](CCC(=O)NCC(=O)O)C(=O)O [γ-Glu--Gly] | 90 ± 13% |  | 
46 | NC(CC(C(=O)O)C(=O)O)C(=O)O (centres unmarked) [γ-carboxy glutamate] | 100% | 104% | 
